Reference: ChEMBL document CHEMBL5058646 (2022)

Columns and labels:
[1] = biological target: Cyclin-dependent kinase-like 1 (Homo sapiens) (UniProt Q00532); assay: CDKL1 SGC Tm panel (DSF); conditions: Compound concentration 20.0 uM
[2] = biological target: Ephrin type-B receptor 1 (Homo sapiens) (UniProt P54762); assay: EPHB1 SGC Tm panel (DSF); conditions: Compound concentration 20.0 uM
[3] = biological target: Fibroblast growth factor receptor 2 (Homo sapiens) (UniProt P21802); assay: FGFR2 SGC Tm panel (DSF); conditions: Compound concentration 20.0 uM
Chain of Fibroblast growth factor receptor 2 (Homo sapiens) (P21802 22-821 limits assumed): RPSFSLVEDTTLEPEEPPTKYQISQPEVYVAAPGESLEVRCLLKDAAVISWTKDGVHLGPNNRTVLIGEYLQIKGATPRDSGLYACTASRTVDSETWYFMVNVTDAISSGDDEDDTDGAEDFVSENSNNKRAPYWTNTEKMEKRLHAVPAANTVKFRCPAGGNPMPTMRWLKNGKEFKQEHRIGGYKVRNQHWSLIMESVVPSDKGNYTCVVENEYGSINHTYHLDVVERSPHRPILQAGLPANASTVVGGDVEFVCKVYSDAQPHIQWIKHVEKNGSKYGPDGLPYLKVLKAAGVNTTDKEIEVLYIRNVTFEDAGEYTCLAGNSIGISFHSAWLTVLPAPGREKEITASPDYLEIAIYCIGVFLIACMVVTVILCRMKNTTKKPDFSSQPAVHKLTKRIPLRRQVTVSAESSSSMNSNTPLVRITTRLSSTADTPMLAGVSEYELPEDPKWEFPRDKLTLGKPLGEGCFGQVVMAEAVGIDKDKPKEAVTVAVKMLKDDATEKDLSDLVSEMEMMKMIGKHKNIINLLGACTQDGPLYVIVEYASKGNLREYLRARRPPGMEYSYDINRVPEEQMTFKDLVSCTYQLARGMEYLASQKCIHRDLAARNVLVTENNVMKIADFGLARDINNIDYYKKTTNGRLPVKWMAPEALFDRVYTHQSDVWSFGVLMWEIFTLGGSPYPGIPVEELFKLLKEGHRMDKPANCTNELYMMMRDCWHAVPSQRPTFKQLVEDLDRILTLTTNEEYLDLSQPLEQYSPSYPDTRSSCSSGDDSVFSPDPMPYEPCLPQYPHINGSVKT

[4] = biological target: Dual specificity mitogen-activated protein kinase kinase 4 (Homo sapiens) (UniProt P45985); assay: MAP2K4 SGC Tm panel (DSF); conditions: Compound concentration 20.0 uM
Chain of Dual specificity mitogen-activated protein kinase kinase 4 (Homo sapiens) (P45985 whole entry): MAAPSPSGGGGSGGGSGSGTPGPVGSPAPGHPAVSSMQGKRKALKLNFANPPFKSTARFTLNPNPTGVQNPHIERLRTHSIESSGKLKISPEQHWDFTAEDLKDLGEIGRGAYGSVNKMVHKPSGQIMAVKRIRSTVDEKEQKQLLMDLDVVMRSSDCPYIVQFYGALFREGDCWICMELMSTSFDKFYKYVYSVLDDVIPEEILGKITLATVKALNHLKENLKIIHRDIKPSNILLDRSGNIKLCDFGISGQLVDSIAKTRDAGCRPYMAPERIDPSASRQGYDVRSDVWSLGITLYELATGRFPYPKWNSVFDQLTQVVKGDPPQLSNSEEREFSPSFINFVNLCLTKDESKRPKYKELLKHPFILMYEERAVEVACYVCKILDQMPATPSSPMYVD

[5] = biological target: Mitogen-activated protein kinase 9 (Homo sapiens) (UniProt P45984); assay: MAPK9 SGC Tm panel (DSF); conditions: Compound concentration 20.0 uM
Chain of Mitogen-activated protein kinase 9 (Homo sapiens) (P45984 whole entry, looked up): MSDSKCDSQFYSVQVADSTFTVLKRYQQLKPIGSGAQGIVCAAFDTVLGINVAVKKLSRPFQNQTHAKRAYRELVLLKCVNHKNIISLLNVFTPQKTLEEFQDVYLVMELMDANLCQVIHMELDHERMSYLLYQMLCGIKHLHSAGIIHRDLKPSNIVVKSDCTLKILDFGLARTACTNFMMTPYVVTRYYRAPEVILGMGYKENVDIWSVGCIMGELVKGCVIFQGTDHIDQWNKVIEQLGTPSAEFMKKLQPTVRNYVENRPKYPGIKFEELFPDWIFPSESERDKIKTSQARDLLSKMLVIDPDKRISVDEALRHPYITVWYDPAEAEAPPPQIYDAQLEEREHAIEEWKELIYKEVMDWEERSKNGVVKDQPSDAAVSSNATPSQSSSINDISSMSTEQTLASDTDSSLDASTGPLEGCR

[6] = biological target: MAP/microtubule affinity-regulating kinase 4 (Homo sapiens) (UniProt Q96L34); assay: MARK4 SGC Tm panel (DSF); conditions: Compound concentration 20.0 uM
[7] = biological target: Aurora kinase A (Homo sapiens) (UniProt O14965); assay: STK6 SGC Tm panel (DSF); conditions: Compound concentration 20.0 uM
[8] = biological target: Dual specificity protein kinase TTK (Homo sapiens) (UniProt P33981); assay: TTK SGC Tm panel (DSF); conditions: Compound concentration 20.0 uM
Chain of Dual specificity protein kinase TTK (Homo sapiens) (P33981 whole entry): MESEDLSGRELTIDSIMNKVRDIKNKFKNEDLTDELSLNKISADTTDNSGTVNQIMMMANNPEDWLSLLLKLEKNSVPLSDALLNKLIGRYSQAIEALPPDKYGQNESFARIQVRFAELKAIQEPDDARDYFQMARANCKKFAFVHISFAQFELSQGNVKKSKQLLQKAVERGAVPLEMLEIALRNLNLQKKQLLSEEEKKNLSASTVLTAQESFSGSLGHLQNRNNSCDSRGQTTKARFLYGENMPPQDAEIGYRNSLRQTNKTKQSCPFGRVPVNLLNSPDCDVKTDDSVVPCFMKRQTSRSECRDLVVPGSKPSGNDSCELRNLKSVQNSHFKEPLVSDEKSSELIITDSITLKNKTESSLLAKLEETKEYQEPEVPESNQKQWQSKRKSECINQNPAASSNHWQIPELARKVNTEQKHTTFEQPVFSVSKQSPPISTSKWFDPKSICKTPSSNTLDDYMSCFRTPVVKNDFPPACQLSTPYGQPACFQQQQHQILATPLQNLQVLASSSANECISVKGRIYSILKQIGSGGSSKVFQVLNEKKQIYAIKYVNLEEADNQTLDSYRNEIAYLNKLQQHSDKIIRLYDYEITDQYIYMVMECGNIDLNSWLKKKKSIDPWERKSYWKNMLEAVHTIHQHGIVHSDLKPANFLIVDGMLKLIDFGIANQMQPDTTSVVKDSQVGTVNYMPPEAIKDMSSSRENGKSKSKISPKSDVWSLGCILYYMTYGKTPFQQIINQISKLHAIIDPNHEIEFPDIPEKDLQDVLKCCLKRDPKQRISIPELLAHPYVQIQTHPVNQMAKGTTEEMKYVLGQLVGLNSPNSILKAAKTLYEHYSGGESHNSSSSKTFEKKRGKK

[9] = biological target: 5-hydroxytryptamine receptor 2A (Homo sapiens) (UniProt P28223); conditions: Compound concentration 10.0 uM
Chain of 5-hydroxytryptamine receptor 2A (Homo sapiens) (P28223 whole entry): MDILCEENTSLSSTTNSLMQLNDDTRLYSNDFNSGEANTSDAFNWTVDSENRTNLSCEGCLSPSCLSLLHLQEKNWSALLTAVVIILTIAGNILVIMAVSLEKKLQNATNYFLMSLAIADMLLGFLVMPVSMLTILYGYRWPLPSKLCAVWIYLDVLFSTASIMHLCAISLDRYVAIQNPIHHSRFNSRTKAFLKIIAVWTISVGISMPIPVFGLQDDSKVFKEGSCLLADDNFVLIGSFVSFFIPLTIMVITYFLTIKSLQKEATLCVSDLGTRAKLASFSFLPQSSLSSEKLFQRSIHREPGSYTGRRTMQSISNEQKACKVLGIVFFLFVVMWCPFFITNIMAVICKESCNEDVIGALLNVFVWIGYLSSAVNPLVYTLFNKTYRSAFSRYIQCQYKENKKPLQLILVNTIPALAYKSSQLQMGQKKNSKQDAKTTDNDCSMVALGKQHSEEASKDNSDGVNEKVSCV

[10] = biological target: D(4) dopamine receptor (Homo sapiens) (UniProt P21917); conditions: Compound concentration 10.0 uM
Chain of D(4) dopamine receptor (Homo sapiens) (P21917 whole entry): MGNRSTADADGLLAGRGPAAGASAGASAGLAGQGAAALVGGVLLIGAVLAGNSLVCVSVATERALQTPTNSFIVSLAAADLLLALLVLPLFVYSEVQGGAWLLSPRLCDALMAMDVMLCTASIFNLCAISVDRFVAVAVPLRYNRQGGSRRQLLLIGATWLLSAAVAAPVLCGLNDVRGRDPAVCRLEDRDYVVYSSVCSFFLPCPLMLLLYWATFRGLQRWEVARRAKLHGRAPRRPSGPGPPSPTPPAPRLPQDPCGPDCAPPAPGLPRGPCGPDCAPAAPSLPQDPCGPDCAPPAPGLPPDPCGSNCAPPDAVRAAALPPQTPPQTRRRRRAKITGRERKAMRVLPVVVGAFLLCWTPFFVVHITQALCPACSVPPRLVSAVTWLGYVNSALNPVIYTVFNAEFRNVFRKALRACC

[11] = biological target: Histamine H2 receptor (Homo sapiens) (UniProt P25021); conditions: Compound concentration 10.0 uM
[12] = biological target: Alpha-2A adrenergic receptor (Homo sapiens) (UniProt P08913); conditions: Compound concentration 10.0 uM
[13] = biological target: Beta-3 adrenergic receptor (Homo sapiens, UniProt P13945); conditions: Compound concentration 10.0 uM
[14] = biological target: T1, Zinc finger and BTB domain-containing protein 11 (Homo sapiens) (UniProt O95625); conditions: SUD4, Compound concentration 1.0 uM
T1 sequence (whole entry): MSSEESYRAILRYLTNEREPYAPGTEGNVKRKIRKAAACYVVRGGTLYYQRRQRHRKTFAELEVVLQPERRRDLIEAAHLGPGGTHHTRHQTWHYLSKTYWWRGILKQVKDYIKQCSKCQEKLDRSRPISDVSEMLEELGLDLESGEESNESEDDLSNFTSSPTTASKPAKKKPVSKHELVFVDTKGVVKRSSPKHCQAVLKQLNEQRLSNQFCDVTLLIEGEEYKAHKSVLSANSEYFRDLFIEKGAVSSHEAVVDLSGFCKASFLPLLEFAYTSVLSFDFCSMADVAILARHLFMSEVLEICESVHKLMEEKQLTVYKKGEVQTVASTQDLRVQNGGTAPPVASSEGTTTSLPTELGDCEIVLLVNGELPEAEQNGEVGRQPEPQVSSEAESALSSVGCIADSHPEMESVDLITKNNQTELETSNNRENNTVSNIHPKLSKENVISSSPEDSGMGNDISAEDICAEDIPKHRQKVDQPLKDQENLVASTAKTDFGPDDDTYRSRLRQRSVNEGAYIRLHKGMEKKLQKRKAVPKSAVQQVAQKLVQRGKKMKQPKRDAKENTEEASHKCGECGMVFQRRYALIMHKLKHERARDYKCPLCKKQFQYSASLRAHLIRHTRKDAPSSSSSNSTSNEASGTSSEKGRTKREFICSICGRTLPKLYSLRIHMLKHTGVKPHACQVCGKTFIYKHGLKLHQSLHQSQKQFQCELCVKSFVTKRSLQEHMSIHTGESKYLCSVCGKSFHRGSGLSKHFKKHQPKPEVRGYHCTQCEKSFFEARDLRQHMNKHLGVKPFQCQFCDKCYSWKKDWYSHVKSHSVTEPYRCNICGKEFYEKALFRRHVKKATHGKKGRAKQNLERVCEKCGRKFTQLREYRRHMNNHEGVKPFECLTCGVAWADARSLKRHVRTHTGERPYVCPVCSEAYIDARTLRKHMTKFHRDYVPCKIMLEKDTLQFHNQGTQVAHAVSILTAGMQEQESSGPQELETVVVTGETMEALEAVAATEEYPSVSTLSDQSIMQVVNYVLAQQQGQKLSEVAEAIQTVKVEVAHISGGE

[15] = biological target: T2, Zinc finger protein 131 (Homo sapiens) (UniProt P52739); conditions: SUD4, Compound concentration 1.0 uM
T2 sequence (whole entry): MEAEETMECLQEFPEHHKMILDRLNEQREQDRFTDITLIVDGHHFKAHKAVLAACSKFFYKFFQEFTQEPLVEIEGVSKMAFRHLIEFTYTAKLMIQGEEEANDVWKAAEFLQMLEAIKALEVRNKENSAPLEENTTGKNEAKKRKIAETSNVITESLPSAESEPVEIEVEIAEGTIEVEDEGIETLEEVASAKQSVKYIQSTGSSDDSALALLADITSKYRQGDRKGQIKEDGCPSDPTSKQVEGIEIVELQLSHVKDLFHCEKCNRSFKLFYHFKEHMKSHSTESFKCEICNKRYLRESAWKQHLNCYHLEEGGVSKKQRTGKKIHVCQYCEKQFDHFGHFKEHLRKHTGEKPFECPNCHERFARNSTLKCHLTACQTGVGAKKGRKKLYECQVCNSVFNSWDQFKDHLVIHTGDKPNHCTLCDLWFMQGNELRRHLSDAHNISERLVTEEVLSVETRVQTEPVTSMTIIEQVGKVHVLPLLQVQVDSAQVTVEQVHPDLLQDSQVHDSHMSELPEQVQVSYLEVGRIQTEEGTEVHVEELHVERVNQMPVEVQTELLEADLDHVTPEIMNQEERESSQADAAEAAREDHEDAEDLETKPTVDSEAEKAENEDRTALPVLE

[16] = biological target: Myoneurin (Homo sapiens) (UniProt Q9NPC7); conditions: SUD4, Compound concentration 1.0 uM
[17] = biological target: T1, Zinc finger and BTB domain-containing protein 11 (Homo sapiens); conditions: SUD4, Compound concentration 1.0 uM; remark: listed apart in the source
[18] = biological target: Transcription regulator protein BACH2 (Homo sapiens) (UniProt Q9BYV9); conditions: OCI-Ly1, Compound concentration 1.0 uM
[19] = biological target: Phosphorylase b kinase gamma catalytic chain, liver/testis isoform (Homo sapiens) (UniProt P15735); assay: PHKG2 SGC Tm panel (DSF); conditions: Compound concentration 20.0 uM

Chain of Ephrin type-B receptor 1 (Homo sapiens) (P54762 whole entry): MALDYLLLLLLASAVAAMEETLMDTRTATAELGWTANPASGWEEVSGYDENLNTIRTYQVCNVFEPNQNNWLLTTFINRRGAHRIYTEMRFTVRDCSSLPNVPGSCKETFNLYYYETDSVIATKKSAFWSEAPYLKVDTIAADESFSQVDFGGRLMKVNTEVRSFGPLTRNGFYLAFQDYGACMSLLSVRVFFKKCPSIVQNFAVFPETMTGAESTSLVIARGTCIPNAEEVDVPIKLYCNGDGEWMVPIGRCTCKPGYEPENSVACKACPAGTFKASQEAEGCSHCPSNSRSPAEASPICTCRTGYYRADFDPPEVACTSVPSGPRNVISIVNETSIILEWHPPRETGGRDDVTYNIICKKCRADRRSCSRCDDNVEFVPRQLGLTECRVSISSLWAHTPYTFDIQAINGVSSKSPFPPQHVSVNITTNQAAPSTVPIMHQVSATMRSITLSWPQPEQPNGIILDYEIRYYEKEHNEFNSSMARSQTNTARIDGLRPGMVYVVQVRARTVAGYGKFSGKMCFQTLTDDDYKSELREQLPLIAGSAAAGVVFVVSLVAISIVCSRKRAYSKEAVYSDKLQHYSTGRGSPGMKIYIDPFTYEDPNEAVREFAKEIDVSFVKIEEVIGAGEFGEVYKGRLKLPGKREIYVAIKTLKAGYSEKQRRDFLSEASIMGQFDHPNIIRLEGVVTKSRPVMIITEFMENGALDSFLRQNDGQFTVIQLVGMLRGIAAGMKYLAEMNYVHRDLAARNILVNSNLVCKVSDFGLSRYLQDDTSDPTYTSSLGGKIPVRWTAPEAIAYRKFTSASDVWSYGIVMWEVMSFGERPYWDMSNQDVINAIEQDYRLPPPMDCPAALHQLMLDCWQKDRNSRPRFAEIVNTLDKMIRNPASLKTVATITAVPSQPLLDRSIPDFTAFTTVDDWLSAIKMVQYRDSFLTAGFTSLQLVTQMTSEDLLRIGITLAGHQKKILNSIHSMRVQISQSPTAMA
Chain of Cyclin-dependent kinase-like 1 (Homo sapiens) (Q00532 whole entry): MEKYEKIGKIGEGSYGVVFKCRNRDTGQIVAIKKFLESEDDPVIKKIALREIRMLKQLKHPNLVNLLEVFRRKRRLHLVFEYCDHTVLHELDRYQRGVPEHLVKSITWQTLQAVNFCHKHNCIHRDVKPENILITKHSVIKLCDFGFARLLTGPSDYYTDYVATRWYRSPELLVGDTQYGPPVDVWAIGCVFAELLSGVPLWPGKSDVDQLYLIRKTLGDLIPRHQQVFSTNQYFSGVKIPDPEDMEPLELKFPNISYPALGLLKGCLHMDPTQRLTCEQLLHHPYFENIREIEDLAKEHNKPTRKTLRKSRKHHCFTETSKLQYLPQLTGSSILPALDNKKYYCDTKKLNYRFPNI

Tm [1]: 45 °C | Tm [2]: 57 °C | Tm [3]: 50 °C | Tm [4]: 41 °C | Tm [5]: 54 °C | Tm [6]: 36 °C | Tm [7]: 45 °C | Tm [8]: 46 °C | inhibition [9]: 23.6% | inhibition [10]: 15.2% | inhibition [11]: 43.7% | inhibition [12]: 14% | inhibition [13]: 65.3% | LogFC [14]: -0.0504 | LogFC [15]: 0.111 | LogFC [16]: -0.189 | LogFC [17]: 0.0341 | LogFC [18]: -0.00139 | Tm [19]: 46 °C
Compound: C[C@@H]1CN(c2ncc(Cl)c(Nc3ccc4c(c3)n(CCC(C)(C)O)c(=O)n4C)n2)C[C@H](C)C1(F)F
